Key:
[1] = target: T1, CBX7 ChD (Homo sapiens, UniProt O95931); format: binding; conditions: control ligands on 24 DNA constructs each, relative to nonligand
T1 sequence (O95931 11-69 limits assumed): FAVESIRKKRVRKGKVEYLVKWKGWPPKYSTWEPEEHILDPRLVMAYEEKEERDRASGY

[2] = system: CBX7; conditions: cited from earlier work

| Substance | enrichment in model selection against CBX7 (in words) [1] | selectivity to CBX7 over other CBX proteins and ChDs [2] | Kd ([2]; reported Kd for CBX7) |
| --- | --- | --- | --- |
| Ac-F-A-I-Kme3-S-140-mers [medium-affinity ligand] | moderately enriched |  |  |
| Bz-A-I-Kme3-S-140-mers [low-affinity ligand] | poorly enriched |  |  |
| UNC3866 |  | 6- to 18 fold | 97 nM |

From publication PMC5962403 (SLAS discovery : advancing life sciences R & D, 2018)
